Measurements: patent US9580487B2, “Method of treating stomach or bowel-related disorders by administering glucagon-like-peptide-2 (GLP-2) analogues” (Zealand Pharma A/S, priority 2005, dated 2017)
“Also recorded” adds a separate entry of the source. No end group written: not given here.

Tests used:
[1] = Chemical stability testing: incubation in HCl, NaOH, H2O2 or NH4HCO3 at 40° C., remaining purity by RP-HPLC; type: physicochemical; conditions: 40° C.
Protocol: The GLP-2 analogues were dissolved in purified water and subsequently diluted in solutions containing HCl, NaOH, H2O2 or NH4HCO3. The solutions were incubated at 40° C. to produce hydrolysis, deamidation and oxidation products. The samples were analyzed by RP-HPLC and the percentage of remaining intact compound was determined as a measure for the relative stability. The major degradation products were tentatively identified by LC-MS.
The GLP-2 analogues tested and the reference Gly^2-GLP-2, ZP1559 (SEQ ID NO:54), were dissolved in water and subsequently diluted into solutions containing HCl, NaOH, H2O2 or NH4HCO3. The samples were incubated at 40° C. to generate hydrolysis, deamidation and oxidation products, respectively. The compounds were analysed by RP-HPLC for purity of the original main peak and by LC-MS for confirmation of the identity by mass of the main peak and major degradation products.
The GLP-2 analogues were first dissolved in MQW to a concentration of 4 mg/ml and then further diluted in the stress solutions at a 1:1 ratio (e.g. 125 μl plus 125 μl). The final concentrations were 2 mg/ml of the GLP-2 analogues for stress conditions with 0.1 M HCl, 0.01M NaOH, 0.1 M NH4HCO3 and 0.5% H2O2, respectively.
The solutions were incubated at 40° C. in the dark and then diluted in Eluent A to a concentration of 0.5 mg/ml (addition of 750 μl) prior to analyses by RP-HPLC and by LC-MS.
The RP-HPLC analyses were performed on an Agilent Series 1100 HPLC system under control of the ChemStation (Revision A.08.03 [847]) software from Agilent Technologies, Inc. The raw data and the results of the peak integration were deposited on the ChemStore C/S server by the use of Agilent Technologies Revision B01.03 software.
The results are shown in Table 9 as the compound purity measured by RP-HPLC after incubation under stress conditions. This purity is a measure for the remaining intact compound after incubation in stress solutions, relative to the purity measured a T=0.

[2] = system: male C57BL mice; assay: Screening for intestinal growth effects (small intestine and colon mass relative to body weight, small intestine-colon sensitivity index); type: in vivo; conditions: for Preferential growth of small intestine versus colon (small intestine-colon sensitivity): relative to [Gly2]GLP-2; for colon mass relative to body weight, % [Gly2]GLP-2 / small intestine-colon sensitivity index, (SI/Colon)X/(SI/Colon)[Gly2]GLP-2 %: male C57BL mice, 30 nmol/kg s.c. twice daily for ten days; for small intestine-colon sensitivity index, (SI/Colon)X/(SI/Colon)[Gly2]GLP-2 %: third value column
Protocol: The ability of the present compounds to stimulate intestinal growth was determined in male C57BL mice. Individual groups (n=6) of mice were given 30 nmol/kg of each compound, s.c, twice daily for ten consecutive days. For comparison purposes other groups of animals were given either an equimolar dose of [Gly2]GLP-2 (SEQ ID NO:54) or vehicle (phosphate buffered saline, pH 7.4) in the same dosing regimen. Twenty-four hours after the last dose of compound had been given the mice were sacrificed and the small intestine (from the pylorus to the cecum) and the colon (intestine distal to cecum) was emptied and weighed. To correct for slight difference in body weight (BW), the organ mass of the small intestine (SI) and colon were expressed relative to BW. The non-selective reference compound [Gly2]GLP-2 (SEQ ID NO:54) has been reported to stimulate gastrointestinal growth in both esophagus, stomach, small intestine and colon and to evaluate differences in growth pattern induced by compounds, the small intestine-colon sensitivity index of compound X was calculated as:
(SI/Colon)X/(SI/Colon)[Gly2]GLP-2%
Compounds with a small intestine-colon sensitivity greater than or equal to 1.05 were considered relatively selective for the small intestine (Table 15).
Compounds with a small intestine-colon sensitivity smaller than or equal to 0.95 were considered relatively selective for the colon (Table 15).

[3] = 2 mg/ml, RP-HPLC, relative to the purity at T=0
[4] = 30 nmol/kg s.c. twice daily, ten days

Row | Substance | Preferential growth of small intestine versus colon (small intestine-colon sensitivity) [2, 4] | colon mass relative to body weight, % [Gly2]GLP-2 [2] | small intestine-colon sensitivity index, (SI/Colon)X/(SI/Colon)[Gly2]GLP-2 % [2] | other results
1 | [Gly2, Thr7, Ser8, Leu10, Ala11,24]hGLP-2(1-30)-NH2 (HGDGSFTSELATILDNLAARDFIAWLIQTK-NH2) [Compound 1834] | without preferential growth in small intestine or colon |  |  | Stability during acid hydrolysis (in words) ([1]; 0.1 M HCl, 12 days): less stable than the remaining six candidates due to acid hydrolysis; Purity H2O2 0.5% 3 days [1, 3]: 53%; Purity HCl 0.1M 12 days [1, 3]: 38%; Purity NH4HCO3 0.1M 6 days ([1]; 2 mg/ml, pH 8, RP-HPLC, relative to the purity at T=0): 91%
2 | [Gly2, Glu3, Leu10, Lys11, Ala16,24,28]hGLP-2(1-33)-(Lys)6-NH2 (HGEGSFSDELKTILDALAARDFIAWLIATKITDKKKKKK-NH2) [Compound 1850] | preferentially stimulating epithelial growth in the small intestine | 89 % [Gly2]GLP-2 | 116 % [Gly2]GLP-2 | 
3 | [Gly2, Thr7, Leu10, Ser11, Ala24]hGLP-2(1-30)-NH2 (HGDGSFTDELSTILDNLAARDFIAWLIQTK-NH2) [Compound 1831] | preferentially stimulating epithelial growth in the colon | 102 % [Gly2]GLP-2 | 88 % [Gly2]GLP-2 | 
4 | [Gly2, Thr7, Leu10, Ser8,11, Ala24]hGLP-2(1-30)-NH2 (HGDGSFTSELSTILDNLAARDFIAWLIQTK-NH2) [Compound 1832] | without preferential growth in small intestine or colon |  |  | 
5 | [Gly2, Glu3, Thr5, Leu10, Ser11, Ala16,24,28]hGLP-2(1-33)-(Lys)6-NH2 (HGEGTFSDELSTILDALAARDFIAWLIATKITDKKKKKK-NH2) [Compound 1845] | preferentially stimulating epithelial growth in the small intestine | 98 % [Gly2]GLP-2 | 107 % [Gly2]GLP-2 | 
6 | [Gly2, Leu10, Lys11, Ala24]hGLP-2(1-30)-K6-NH2 [Compound 1821] | without preferential growth in small intestine or colon |  |  | 
7 | [Gly2, Leu10, Lys11, Ala24]hGLP-2(1-30)-NH2 (HGDGSFSDELKTILDNLAARDFIAWLIQTK-NH2) [Compound 1835] | preferentially stimulating epithelial growth in the colon | 105 % [Gly2]GLP-2 | 91 % [Gly2]GLP-2 | 
8 | [Gly2, Leu10, Ser11, Ala24]hGLP-2(1-30)-K6-NH2 [Compound 1819] | preferentially stimulating epithelial growth in the small intestine |  |  | 
9 | [Gly2, Ser8, Leu10, Ala11,24]hGLP-2(1-30)-NH2 (HGDGSFSSELATILDNLAARDFIAWLIQTK-NH2) [Compound 1825] | without preferential growth in small intestine or colon |  |  | 
10 | [Gly2, Glu3, Thr5, Leu10, Ala11,16,24,28]hGLP-2-(Lys)6-NH2 (HGEGTFSDELATILDALAARDFIAWLIATKITDKKKKKK-NH2) [Compound 1809] | preferentially stimulating epithelial growth in the small intestine |  |  | Small intestine mass relative to [Gly2]GLP-2 ([2]; 30 nmol/kg s.c. twice daily, ten days, equimolar [Gly2]GLP-2): significant increase in the weight of the small intestine
11 | [Leu10, Ala11, Ala24]hGLP-2 (1-33)-NH2 [Compound 1840] | preferentially stimulating epithelial growth in the colon | 131 % [Gly2]GLP-2 | 86 % [Gly2]GLP-2 | 
12 | [Leu10, Ala11, Ala24]hGLP-2 (1-30)-NH2 [Compound 1841] | preferentially stimulating epithelial growth in the colon | 126 % [Gly2]GLP-2 | 90 % [Gly2]GLP-2 | 
13 | [Gly2, Glu3, Thr5, Leu10, Lys11, Ala16,24,28]hGLP-2(1-33)-(Lys)6-NH2 (HGEGTFSDELKTILDALAARDFIAWLIATKITDKKKKKK-NH2) [Compound 1851] | preferentially stimulating epithelial growth in the small intestine | 96 % [Gly2]GLP-2 | 114 % [Gly2]GLP-2 | 
14 | [Thr7, Leu10, Ala11, Ala24]hGLP-2 (1-30)-NH2 [Compound 1843] | preferentially stimulating epithelial growth in the colon | 130 % [Gly2]GLP-2 | 85 % [Gly2]GLP-2 | 
15 | [Gly2, Thr7, Leu10, Lys11, Ala24]hGLP-2(1-30)-K6-NH2 [Compound 1822] | without preferential growth in small intestine or colon |  |  | 
16 | [Gly2, Leu10, Ser8,11, Ala24]hGLP-2(1-30)-K6-NH2 [Compound 1829] | without preferential growth in small intestine or colon |  |  | 
17 | [Gly2, Leu10, Ala24]hGLP-2-K6-NH2 (HGDGSFSDELNTILDNLAARDFIAWLIQTKITDKKKKKK-NH2) [Compound 1826] | preferentially stimulating epithelial growth in the small intestine |  |  | 
18 | [Gly2, Glu3, Thr5, Ser8, Leu10, Lys11, Ala16,24,28]hGLP-2(1-33)-NH2 [Compound 1852] | supplementary increase in the weight of the small intestine without significant effecting the weight of the colon; also recorded: preferentially stimulating epithelial growth in the small intestine | 97 % [Gly2]GLP-2 | 109 % [Gly2]GLP-2 | 
19 | [Gly2, Thr7, Leu10, Ser11, Ala24]hGLP-2(1-30)-K6-NH2 [Compound 1827] | preferentially stimulating epithelial growth in the small intestine |  |  | 
